Results taken from patent publication US8198061B2, “Acetylcholinesterase gene responsible for insecticide resistance and applications thereof” (priority 2002, dated 2012).

Legend:
AChE = conditions: Abramson et al., Mol. Pharmacol., 1989, 36, 349; read-out: apparent affinity; cited from earlier work
[1] = molecular target: T1, Culex pipiens AChE1, resistant SR strain (serine at position 119, G119S) (Culex pipiens, UniProt Q86GC8, G247S); assay: Acetylcholinesterase activity of recombinant resistant AChE1 (S2 cell extracts) with propoxur; type: biochemical; conditions: glycine247(119)→serine247(119) mutant (SR); 10^−4 M and 10^−2 M of propoxur; FIG. 10
T1 construct: The cDNAs encoding the AChE1s of, respectively, the strain S-LAB and the strain SR were cloned in the eukaryotic expression vector pAc5.1/V5-His; V5-His (from the vector pAc5.1/V5-His); made in house; host or cells: Drosophila Schneider S2 cells, transiently transfected; Triton X-100 cell extract, not purified
Source text: (§1) The cDNAs encoding the AChE1s of, respectively, the strain S-LAB and the strain SR were cloned in the eukaryotic expression vector pAc5.1/V5-His (INVITROGEN), according to conventional recombinant DNA techniques, by following standard protocols such as those described in Current Protocols in Molecular Biology, mentioned above. Drosophila cells (Schneider S2 cells) were transfected with the recombinant vectors thus obtained, using the Fugen® reagent (ROCHE), according to the manufacturer's instructions. 24 hours after transfection, the cells were harvested by centrifugation and then lyzed in a 0.25M phosphate buffer containing 1% Triton X-100. The acetylcholinesterase activity of the cell extracts obtained was measured, in the presence or in the absence of insecticide (propoxur), by the method as described in Bourguet et al., Biochemical Genetics, 1996, 34, 351-362.
(§2) The recombinant AChE1s of, respectively, the strain S-LAB and the strain SR were expressed in insect cells and the acetylcholinesterase activity was measured using cell extracts as described in example 1.

[2] = molecular target: T2, Culex pipiens AChE1, sensitive S-LAB strain (glycine at position 119) (Culex pipiens, UniProt Q86GC8); assay: Acetylcholinesterase activity of recombinant sensitive AChE1 (S2 cell extracts) with propoxur; type: biochemical; conditions: 10^−3 M of propoxur
T2 construct: The cDNAs encoding the AChE1s of, respectively, the strain S-LAB and the strain SR were cloned in the eukaryotic expression vector pAc5.1/V5-His; V5-His (from the vector pAc5.1/V5-His); made in house; host or cells: Drosophila Schneider S2 cells, transiently transfected; Triton X-100 cell extract, not purified
Source text: as §1, §2

C. pipiens larvae = assay: Larval mortality on exposure to propoxur (back crosses, ace-1 linkage study); type: in vivo, Culex pipiens
Description: With the females being indicated first, F1 crosses (S×R) and back crosses (F1×S-LAB and S-LAB×F1) were obtained by mass crossing of adults. A few larvae derived from the back crosses were treated with a dose of carbamate (propoxur, 4 mg/l) which kills 100% of sensitive larvae. The linkage between ace-1 and propoxur resistance was studied by RFLP in the surviving larvae, based on a 320 bp PCR product making it possible to identify the S and R alleles. The experiments were carried out independently, with S=SA1, S=SA4 and S=EDIT.
The linkage between the ace-1 gene and propoxur resistance was studied, in triplicate, in the following way: larvae from a backcross (S×R)×S were treated for a dose that is lethal for sensitive individuals and the ace-1 genotype was analyzed in the survivors, by PCR-RFLP.

Row | Compound | Kd (AChE) [µM] | sensitivity of the acetylcholinesterase to the insecticide [1] | activity of the AChE1 inhibited [2] [%] | larvae killed in back crosses (C. pipiens larvae; larvae from backcross (S×R)×S, dose lethal for sensitive individuals, all back crosses) [%] | sensitive larvae killed (C. pipiens larvae; sensitive larvae, propoxur 4 mg/l) [%]
1 | C=C1CCCC(C)(C)C1C/C=C(C=O)\C=C\OC(C)=O (centres unmarked) [onchidal] | 300 |  |  |  | 
2 | CNC(=O)Oc1ccccc1OC(C)C [propoxur] |  | insensitive | 90 | 50 | 100
